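1) Cells in 96-well plates. 2) Compound, 48 h, 5 concentrations. 3) Linear interpolation between surrounding doses. 4) Unreached endpoint = highest concentration. GI50 is the concentration that inhibits growth by half. TGI denotes the concentration required for complete inhibition of growth.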
Assays:
Assay in all cases: NCI tumour cell line growth inhibition, 48 h
CAKI-1 renal = test system: CAKI-1 renal
HCC-2998 colon = test system: HCC-2998 colon
HOP-62 NSCLC = test system: HOP-62 NSCLC
HOP-92 NSCLC = test system: HOP-92 NSCLC
HS 578T breast = test system: HS 578T breast
HT29 colon = test system: HT29 colon
OVCAR-3 ovarian = test system: OVCAR-3 ovarian
OVCAR-5 ovarian = test system: OVCAR-5 ovarian
RPMI-8226 leukemia = test system: RPMI-8226 leukemia
RXF 393 renal = test system: RXF 393 renal
SF-268 CNS = test system: SF-268 CNS
SF-539 CNS = test system: SF-539 CNS
SN12C renal = test system: SN12C renal
T-47D breast = test system: T-47D breast
OVCAR-4 ovarian = test system: OVCAR-4 ovarian

SMILES	TGI (CAKI-1 renal) [µM]	TGI (HCC-2998 colon) [µM]	TGI (HOP-62 NSCLC) [µM]	TGI (HOP-92 NSCLC) [µM]	TGI (HS 578T breast) [µM]	TGI (HT29 colon) [µM]	TGI (OVCAR-3 ovarian) [µM]	TGI (OVCAR-5 ovarian) [µM]	TGI (RPMI-8226 leukemia) [µM]	TGI (RXF 393 renal) [µM]	TGI (SF-268 CNS) [µM]	TGI (SF-539 CNS) [µM]	TGI (SN12C renal) [µM]	TGI (T-47D breast) [µM]	TGI (OVCAR-4 ovarian) [µM]	GI50 (HOP-92 NSCLC) [µM]	GI50 (SF-268 CNS) [µM]
O=C(O)c1ccc(C(c2c(O)c3ccccc3oc2=O)c2c(O)c3ccccc3oc2=O)cc1	> 100	> 100	> 100	6.04	62.7	> 100	> 100	> 100	> 100	> 100	> 100	> 100	> 100	> 100			
O=[N+]([O-])c1cc(Cl)cc2cc(Cl)cnc12	> 100	> 100	> 100	> 100	> 100	> 100	> 100	> 100	> 100	> 100	> 100	> 100	> 100	97.2	> 100		
NC1=NNC2(C(N)=N1)c1ccccc1-c1ccccc12	> 10	> 10	> 10	> 10	> 10	> 10			> 10	> 10	> 10	> 10	> 10	> 10	> 10		
O=c1ccn2n1CCCCC2	> 100	> 100	> 100	> 100	> 100	> 100	> 100	> 100	> 100	> 100	> 100	> 100	> 100	> 100	> 100		
CCOC(=O)CCC(NC(=O)c1ccc(OCc2nc3ccccc3n3cccc23)cc1)C(=O)OCC (stereo not drawn)	> 100	> 100	> 100	> 100	> 100	> 100	> 100	> 100		> 100	> 100	> 100	> 100	> 100	> 100		
COc1cc([N+](=O)[O-])ccc1NC1=CC(=O)CCC1	> 100	> 100	> 100	> 100	> 100	> 100	> 100	> 100	> 100	> 100	> 100	> 100	> 100	> 100	> 100		
COC(=O)C(Cc1ccccc1)OC(=O)C(N)CC(=O)O (stereo not drawn)	> 100	> 100	> 100	> 100	> 100	> 100	> 100	> 100	> 100	> 100	> 100	> 100	> 100	> 100			
COc1ccc(/C=C/C(=O)N[C@@H]2C(=O)N3[C@@H]2SC(C)(C)[C@@H]3C(=O)O)cc1	> 100	> 100	> 100	> 100	> 100	> 100	> 100	> 100	> 100	> 100	> 100	> 100	> 100	> 100	> 100		
O=C(Cc1ccc(Cl)c(Cl)c1)N(CCc1ccc(Cl)c(Cl)c1)CCN1CCCC1	3.1	3.33	3.38	4.74	11.2	3.56	5.47	3.48	3.62	3.34	5.5	3.31		16.1	5.28		
CC1(C)CN=C(Nc2cccc(C(F)(F)F)c2)S1	> 100	> 100	> 100	> 100	> 100	> 100	> 100	> 100	> 100	> 100	> 100	> 100	> 100	> 100	> 100		
CC(C)NC(=O)OCc1c(COC(=O)NC(C)C)n(C)c2c1ccc1ccccc12	1.94	9.86	16.2	2.6	7.12	13	12.4	7.43	3.92	2.65	6.2	3.5	5.3	1.48	9.19		
N#CC(c1cc2c(cc1Br)OCO2)N1CCOCC1 (stereo not drawn)	> 100	> 100	> 100	> 100	83.8	> 100	> 100	> 100	> 100	51.6	> 100	92.1	> 100	> 100	> 100		
CCOP(=O)(C=C=C(C)C)OCC	> 100	> 100	> 100	> 100	> 100	> 100	> 100	> 100		> 100	> 100	> 100	> 100	> 100	> 100		
CNC(=O)CCCN(C)C(=O)CCCCC(=O)N(C)C	> 100	> 100	> 100	> 100	> 100	> 100	> 100	> 100	> 100	> 100	> 100	> 100	> 100	> 100	> 100		
CN(CCCCN(C)CCc1ccc(Cl)c(Cl)c1)CCCCN1CCCC1	3.13	0.384	3.74	2.95	3.23	1.88	4.34	5.54		3.03	3.12		4.01	3.94	3.66		
O=[N+]([O-])O.[Ga]	> 9820	> 5620	1960	3700	> 10000	> 7200	6920	5070	2270	> 9480	> 10000	> 10000	6890	> 9010	5040	673	3000
